Reference: ChEMBL document CHEMBL1201862, “PubChem BioAssay data set” (2004)
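Values below derive from 48-hour exposures of cells grown in 96-well plates, with endpoints linearly interpolated between the two concentrations bracketing the appropriate inhibition level. GI50 = concentration required for 50% inhibition of growth.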 Active and inactive are the calls of the source. Cut-off read from the data, not from the text of the source: active = GI50 up to about 1.1 µM and inactive = higher.

What was measured:
Test in all cases: inhibition of tumour cell growth, NCI panel, 48 h
COLO 205 = test system: COLO 205
DMS-273 = test system: DMS-273
KM-20L2 = test system: KM-20L2
NCI-H23 = test system: NCI-H23
NCI-H522 = test system: NCI-H522
Malme-3M = test system: Malme-3M
SF-268 = test system: SF-268
HT-29 = test system: HT-29
MOLT-4 = test system: MOLT-4
SF-295 = test system: SF-295
SK-MEL-28 = test system: SK-MEL-28
SW-620 = test system: SW-620
M14 = test system: M14
SK-MEL-5 = test system: SK-MEL-5
A549 = test system: A549
RXF 631 = test system: RXF 631
SF-539 = test system: SF-539
RXF 393 = test system: RXF 393
HOP-62 = test system: HOP-62
SNB-19 = test system: SNB-19
IGROV-1 = test system: IGROV-1
DLD-1 = test system: DLD-1
SK-OV-3 = test system: SK-OV-3
CAKI-1 = test system: CAKI-1
HOP-18 = test system: HOP-18
OVCAR-4 = test system: OVCAR-4
M19-MEL = test system: M19-MEL
ACHN = test system: ACHN
DMS-114 = test system: DMS-114
SNB-78 = test system: SNB-78
RPMI-8226 = test system: RPMI-8226
LOX IMVI = test system: LOX IMVI
UO-31 = test system: UO-31
K562 = test system: K562
CCRF-CEM = test system: CCRF-CEM
SK-MEL-2 = test system: SK-MEL-2
HL-60 = test system: HL-60
UACC-62 = test system: UACC-62
HOP-92 = test system: HOP-92
OVCAR-5 = test system: OVCAR-5
NCI-H460 = test system: NCI-H460
U-251 = test system: U-251
UACC-257 = test system: UACC-257
SN12C = test system: SN12C
EKVX = test system: EKVX
A498 = test system: A498
786-0 = test system: 786-0
LXFL 529 = test system: LXFL 529
KM12 = test system: KM12
HCT-15 = test system: HCT-15
SNB-75 = test system: SNB-75
OVCAR-8 = test system: OVCAR-8
OVCAR-3 = test system: OVCAR-3
TK-10 = test system: TK-10
NCI-H226 = test system: NCI-H226
HCT-116 = test system: HCT-116
HCC 2998 = test system: HCC 2998

## N=C(N)NS(=O)(=O)c1ccc(NC(=O)c2ccc(Cl)c3c(Nc4ccc(S(=O)(=O)N=C(N)N)cc4)c4ccccc4nc23)cc1
COLO 205
  GI50: 91.4 µM (inactive)
DMS-273
  GI50: > 100 µM (inactive)
KM-20L2
  GI50: > 100 µM (inactive)
NCI-H23
  GI50: > 100 µM (inactive)
NCI-H522
  GI50: 38.2 µM (inactive)
Malme-3M
  GI50: > 100 µM (inactive)
SF-268
  GI50: > 100 µM (inactive)
HT-29
  GI50: > 100 µM (inactive)
MOLT-4
  GI50: > 100 µM (inactive)
SF-295
  GI50: > 100 µM (inactive)
SK-MEL-28
  GI50: 61 µM (inactive)
SW-620
  GI50: 56.2 µM (inactive)
M14
  GI50: > 100 µM (inactive)
SK-MEL-5
  GI50: > 10 µM (inactive)
A549
  GI50: > 100 µM (inactive)
RXF 631
  GI50: > 100 µM (inactive)
SF-539
  GI50: 53.7 µM (inactive)
RXF 393
  GI50: > 100 µM (inactive)
HOP-62
  GI50: 53.2 µM (inactive)
SNB-19
  GI50: 53.3 µM (inactive)
IGROV-1
  GI50: 76.4 µM (inactive)
DLD-1
  GI50: 49.2 µM (inactive)
SK-OV-3
  GI50: > 100 µM (inactive)
CAKI-1
  GI50: 45.4 µM (inactive)
HOP-18
  GI50: 68.1 µM (inactive)
OVCAR-4
  GI50: > 100 µM (inactive)
M19-MEL
  GI50: 49.8 µM (inactive)
ACHN
  GI50: 95.5 µM (inactive)
DMS-114
  GI50: > 100 µM (inactive)
SNB-78
  GI50: 45 µM (inactive)
RPMI-8226
  GI50: 85.1 µM (inactive)
LOX IMVI
  GI50: 50.9 µM (inactive)
UO-31
  GI50: 83.9 µM (inactive)
K562
  GI50: 38.1 µM (inactive)
CCRF-CEM
  GI50: 43.1 µM (inactive)
SK-MEL-2
  GI50: 39.5 µM (inactive)
HL-60
  GI50: 41.3 µM (inactive)
UACC-62
  GI50: 37.5 µM (inactive)
HOP-92
  GI50: 28.2 µM (inactive)
OVCAR-5
  GI50: > 100 µM (inactive)
NCI-H460
  GI50: > 100 µM (inactive)
U-251
  GI50: 76.7 µM (inactive)
UACC-257
  GI50: 84.5 µM (inactive)
SN12C
  GI50: > 100 µM (inactive)
EKVX
  GI50: 56.8 µM (inactive)
A498
  GI50: > 100 µM (inactive)
786-0
  GI50: > 100 µM (inactive)
LXFL 529
  GI50: 52.8 µM (inactive)
KM12
  GI50: 24.5 µM (inactive)
HCT-15
  GI50: > 100 µM
SNB-75
  GI50: 24.5 µM (inactive)
OVCAR-8
  GI50: > 100 µM (inactive)
OVCAR-3
  GI50: 32.2 µM (inactive)

## Cc1cn2c(=O)c3ncn(C4OC(CO)C(O)C4O)c3n(C)c2n1 (centres undefined)
COLO 205
  GI50: > 100 µM (inactive)
DMS-273
  GI50: > 100 µM (inactive)
KM-20L2
  GI50: > 100 µM (inactive)
NCI-H23
  GI50: > 100 µM (inactive)
NCI-H522
  GI50: > 100 µM (inactive)
Malme-3M
  GI50: > 100 µM (inactive)
SF-268
  GI50: > 100 µM (inactive)
HT-29
  GI50: > 100 µM (inactive)
MOLT-4
  GI50: > 100 µM (inactive)
SF-295
  GI50: > 100 µM (inactive)
SK-MEL-28
  GI50: > 100 µM (inactive)
SW-620
  GI50: > 100 µM (inactive)
M14
  GI50: > 100 µM (inactive)
SK-MEL-5
  GI50: > 100 µM (inactive)
A549
  GI50: > 100 µM (inactive)
RXF 631
  GI50: > 100 µM (inactive)
SF-539
  GI50: > 100 µM (inactive)
RXF 393
  GI50: > 100 µM (inactive)
SNB-19
  GI50: > 100 µM (inactive)
IGROV-1
  GI50: > 100 µM (inactive)
TK-10
  GI50: > 100 µM (inactive)
DLD-1
  GI50: > 100 µM (inactive)
NCI-H226
  GI50: > 100 µM (inactive)
SK-OV-3
  GI50: > 100 µM (inactive)
HCT-116
  GI50: > 100 µM (inactive)
CAKI-1
  GI50: > 100 µM (inactive)
HOP-18
  GI50: > 100 µM (inactive)
OVCAR-4
  GI50: > 100 µM (inactive)
M19-MEL
  GI50: > 100 µM (inactive)
ACHN
  GI50: > 100 µM (inactive)
DMS-114
  GI50: > 100 µM (inactive)
SNB-78
  GI50: > 100 µM (inactive)
RPMI-8226
  GI50: > 100 µM (inactive)
LOX IMVI
  GI50: > 100 µM (inactive)
UO-31
  GI50: > 100 µM (inactive)
K562
  GI50: > 100 µM (inactive)
CCRF-CEM
  GI50: > 100 µM (inactive)
SK-MEL-2
  GI50: > 100 µM (inactive)
HL-60
  GI50: > 100 µM (inactive)
HCC 2998
  GI50: > 100 µM (inactive)
UACC-62
  GI50: > 100 µM (inactive)
HOP-92
  GI50: > 100 µM (inactive)
OVCAR-5
  GI50: > 100 µM (inactive)
NCI-H460
  GI50: > 100 µM (inactive)
U-251
  GI50: > 100 µM (inactive)
UACC-257
  GI50: > 100 µM (inactive)
SN12C
  GI50: > 100 µM (inactive)
EKVX
  GI50: > 100 µM (inactive)
A498
  GI50: > 100 µM (inactive)
786-0
  GI50: > 100 µM (inactive)
LXFL 529
  GI50: > 100 µM (inactive)
KM12
  GI50: > 100 µM (inactive)
HCT-15
  GI50: > 100 µM
SNB-75
  GI50: > 100 µM (inactive)
OVCAR-8
  GI50: > 100 µM (inactive)
OVCAR-3
  GI50: > 100 µM (inactive)
